Laboratory results as given in patent US10111956B2, “Corticosteroid compositions” (TOLMAR, Inc., priority 2013, dated 2018).

Legend:
[1] = Solubility of corticosteroids in neat solvents, measured gravimetrically; assay type: physicochemical; settings: for Solubility in PG Monocaprylate: neat PG monocaprylate; for Solubility in PG Monocaprylate / Solubility in Isopropyl Myristate / Solubility in PG Monolaurate: room temperature, examined at about 24 hours; for Solubility in Isopropyl Myristate: neat isopropyl myristate; for times more soluble in PG monocaprylate than in isopropyl myristate / times more soluble in PG monolaurate than in isopropyl myristate: ratio of Table 1 solubilities; for Solubility in PG Monolaurate: neat PG monolaurate
Protocol: (§1) The solubilities of various corticosteroids in propylene glycol (PG) monocaprylate, PG monolaurate, or isopropyl myristate were measured gravimetrically. Corticosteroid, PG monocaprylate, PG monolaurate, and/or isopropyl myristate were placed in glass vials and weighed on an analytical balance to four decimals places. Test solutions were stirred and shaken at room temperature for up to 30 minutes. Test solutions were examined at about 24 hours for clarity or non-dissolved material.

[2] = Solubility of corticosteroid in mixtures of solvent components (procedure of Example 1); assay type: physicochemical
Protocol: as §1

| SMILES | Solubility in PG Monocaprylate [1] | Solubility in Isopropyl Myristate [1] | times more soluble in PG monocaprylate than in isopropyl myristate [1] | Solubility in PG Monolaurate [1] | times more soluble in PG monolaurate than in isopropyl myristate [1] | other results |
| --- | --- | --- | --- | --- | --- | --- |
| CCC(=O)O[C@]1(C(=O)SCF)[C@H](C)C[C@H]2[C@@H]3C[C@H](F)C4=CC(=O)C=C[C@]4(C)[C@@]3(F)[C@@H](O)C[C@@]21C [Fluticasone Propionate] | 0.3 % w/w | <0.03 % w/w | 10 times |  |  |  |
| CCC(=O)O[C@]1(C(=O)CCl)[C@@H](C)C[C@H]2[C@@H]3CCC4=CC(=O)C=C[C@]4(C)[C@@]3(F)[C@@H](O)C[C@@]21C [Clobetasol Propionate] | 4.0 % w/w | 0.25 % w/w | 16 times | 1.80 % w/w | 7.2 times |  |
| CCC(=O)OCC(=O)[C@@]1(OC(=O)CC)[C@@H](C)C[C@H]2[C@@H]3CCC4=CC(=O)C=C[C@]4(C)[C@@]3(F)[C@@H](O)C[C@@]21C [Betamethasone Dipropionate] | 4.0 % w/w | 0.15 % w/w | 27 times | 2.30 % w/w | 15.3 times |  |
| CC1(C)O[C@@H]2C[C@H]3[C@@H]4CCC5=CC(=O)C=C[C@]5(C)[C@H]4[C@@H](O)C[C@]3(C)[C@]2(C(=O)CO)O1 [Desonide] | 1.15 % w/w |  |  | 0.40 % w/w |  |  |

Continued, in another order:

| Solubility in PG Monocaprylate [1] | Solubility in Isopropyl Myristate [1] | times more soluble in PG monocaprylate than in isopropyl myristate [1] | Solubility in PG Monolaurate [1] | times more soluble in PG monolaurate than in isopropyl myristate [1] | SMILES | other results |
| --- | --- | --- | --- | --- | --- | --- |
| 0.7 % w/w |  |  |  |  | C[C@@H]1C[C@H]2[C@@H]3CCC4=CC(=O)C=C[C@]4(C)[C@@]3(Cl)[C@@H](O)C[C@]2(C)[C@@]1(OC(=O)c1ccco1)C(=O)CCl [Mometasone Fuorate] |  |
| 2.0 % w/w | 0.10 % w/w | 20 times | 1.35 % w/w | 13.5 times | CCCC(=O)O[C@]1(C(=O)CO)CC[C@H]2[C@@H]3CCC4=CC(=O)CC[C@]4(C)[C@H]3[C@@H](O)C[C@@]21C [Hydrocortisone Butyrate] |  |
| 0.65 % w/w | <0.04 % w/w | at least 16 times | 0.30 % w/w | at least 7.5 times | CC1(C)O[C@@H]2C[C@H]3[C@@H]4CCC5=CC(=O)C=C[C@]5(C)[C@@]4(F)[C@@H](O)C[C@]3(C)[C@]2(C(=O)CO)O1 [Triamcinolone Acetonide] | Solubility in PG Monolaurate ([1]; listed as triamcinolone acetonide): 0.3 % w/w; increase of solubility on addition of ethoxydiglycol to PG alone ([2]; 12:12:0 ethoxydiglycol:PG:PG monocaprylate versus PG alone, Example 5): 1.7 fold; Solubility ([2]; Ethoxydiglycol:PG:PG Monocaprylate 12:0:12, Table 7): 1.53 % w/w; Solubility ([2]; Ethoxydiglycol:PG:PG Monocaprylate 12:3:9, Table 7): 2.00 % w/w; Solubility ([2]; Ethoxydiglycol:PG:PG Monocaprylate 12:6:6, Table 7): 2.30 % w/w; Solubility ([2]; Ethoxydiglycol:PG:PG Monocaprylate 12:9:3, Table 7): 2.45 % w/w; Solubility ([2]; Ethoxydiglycol:PG:PG Monocaprylate 12:12:0, Table 7): 2.45 % w/w; solubility in ethoxydiglycol:PG:PG monocaprylate mixture compared with PG:PG monocaprylate mixture ([2]; FIG. 4): more soluble; solubility in PG:PG monocaprylate mixtures compared with expected solubility (dashed line) ([2]; FIG. 4, each tested mixture containing both PG and PG monocaprylate): more soluble in the mixture than expected; Solubility ([2]; PG:PG Monocaprylate 0:100 (PG monocaprylate alone), Table 6): 0.60 % w/w; Solubility ([2]; PG:PG Monocaprylate 25:75, Table 6): 1.25 % w/w; Solubility ([2]; PG:PG Monocaprylate 50:50, Table 6): 1.60 % w/w; Solubility ([2]; PG:PG Monocaprylate 75:25, Table 6): 1.50 % w/w; Solubility ([2]; PG:PG Monocaprylate 90:10, Table 6): 1.15 % w/w; Solubility ([2]; PG:PG Monocaprylate 100:0 (PG alone), Table 6): 0.90 % w/w |
